The numbers were not newly measured in article PMC6816764 (Journal of the American Chemical Society, 2018), which cites them from elsewhere.

The conditions of data set [1]: in nitrogen-sparged H2O; cited from earlier work.
For data set [2] the following is noted: cited from earlier work.

On to `[Ru+2].c1ccc(-c2ccccn2)nc1.c1ccc(-c2ccccn2)nc1.c1ccc(-c2ccccn2)nc1` [[Ru(bpy)3]^2+], for which, in data set [1], the Φem of reference is given as 0.042. Besides, the ΦΔ of standard in data set [2] (in CH3OH) is 0.81. As to [Ru(tpy)(dppn)(py)]^2+, the 1O2 production efficiency in data set [2] (ref 58a) is listed as 98%.
